Measurements from patent publication US8071645B2, “Systems and methods for treating human inflammatory and proliferative diseases and wounds, with fatty acid metabolism inhibitors and/or glycolytic inhibitors” (The Regents of the University of Colorado, priority 2003, dated 2011).

Key:
[1] = test system: RD cells (rhabdomyosarcoma cells); assay: percent death of RD cells by flow cytometry; format: cell-based
Procedure: (§1) Dot plots as a function of live versus dead cells. The cells were cultured at a concentration of 0.5 to 1 million cells per ml. Cells were untreated or treated with etomoxir or 2-deoxy-D-glucose at a concentration of 2.5 mM at the indicated concentrations for either 24 or 48 hours. In additional experiments, under each of these culture conditions, the cells were cultured for 24 hours at which time point, polyclonal anti-UCP-2 was added at a 1:1000 dilution of stock provided by Alpha Diagnostics, San Antonio, Tex. Cells were harvested and analyzed by flow cytometry. Each dot on the dot plots of FIGS. 1, 3, 5, 7, 9, and 11 represents one cell. Five thousand cells were assessed for forward scatter (FS), as a function of cell size, versus side scatter (SS), as a function of cellular granularity. The upper ellipse represents live cells by these criterion and the lower ellipse in each dot plot represents the dead cells.
(§2) Statistical Analysis, Percents, and Geometric Mean Values Percents. Gating is a tool provided by Cell Quest software and allows for the analysis of a certain population of cells. Gating around both the live and dead cell populations gave a percent of the cell numbers that was in each population. After the gates were drawn, a percent value of dead cells was calculated by taking the number of dead cells divided by the number of total cells and multiplying by one hundred.
Referring to FIGS. 29 and 30, RD cells (rhabdomyosarcoma cells—not drug resistant), cultured as described above under “Materials and Methods” were untreated or treated with etomoxir, with 2-deoxy-D-glucose, or with a combination of etomoxir and 2-deoxy-D-glucose, at concentrations indicated in FIG. 29 for 24 hours. Cells were harvested and analyzed by flow cytometry. […] The percent of cell deaths for RD cells after 24 hours was: (a) 31% when untreated, (b) 57% when treated with etomoxir alone, (c) 46% when treated with 2-deoxy-D-glucose alone, and (d) 66% when treated with the combination of etomoxir and 2-deoxy-D-glucose.
Referring to FIGS. 33 and 34, RD cells, cultured as described in Example 22, were untreated or treated with etomoxir, with 2-deoxy-D-glucose, or with a combination of etomoxir and 2-deoxy-D-glucose, at concentrations indicated in FIG. 33 for 48 hours. Cells were harvested and analyzed by flow cytometry. […] The percent of cell deaths for RD cells after 48 hours was: (a) 36% when untreated, (b) 64% when treated with etomoxir alone, (c) 63% when treated with 2-deoxy-D-glucose alone, and (d) 68% when treated with the combination of etomoxir and 2-deoxy-D-glucose.

HL60 MDR tumor = HL60 MDR tumor implanted in nude mice, tumor volume; format: in vivo
Description: Tumor implantation. Mice were purchased from the Animal Production Program of National Cancer Institute, Frederick, Md. The animals used were Athymic Ncr-nu/nu (strain code 01B74). HL60 MDR cells were harvested and reconstituted at 1 million cells per 100 microliters of phosphate buffered saline. One million tumor cells per injection site were implanted subcutaneously on two sites of the animal's back. Treatments began at exactly seven days post tumor implantation. Tumor size/volume was monitored twice weekly using measurement calipers, with the formula Tumor Volume=π×(short diameter)^2×(long diameter)/6.
Mice experiments with fatty acid metabolism and glycolytic inhibitors. Fatty acid metabolism inhibitors were exemplified by etomoxir at 200 micrograms/day. Glycolytic inhibitors were exemplified by 2-deoxy-D-glucose at 2.5 mM in 100 microliters daily. The combination was administered daily, etomoxir at 200 micrograms and 2-deoxy-D-glucose at 2.5 mM in 100 microliters. All drugs were administered intra-peritoneally. 5-Fluoro-uracil, at 20 mg per kilogram mouse, was injected intra-peritoneally once a week
HL60 MDR human leukemia cells were cultured and implanted in nude mice as described above under “Materials and Methods”. The mice were given 200 ug of Etomoxir, 2.5 mM 2-Deoxy-D-glucose, or both 200 ug of Etomoxir and 2.5 mM 2-Deoxy-D-glucose given daily by IP injection. Treatment began exactly one week after tumor implantation.

HL60 MDR cells [2] = assay: % death of HL60 MDR cells by flow cytometry; format: cell-based, human; details: for HL60 MDR % Death: Table 1, 25 ug/mL Cerulenin
Procedure: as §1, §2
(§3) This example illustrates an embodiment of the invention, where multi-drug resistant cancer cells were exposed to compositions of the invention. Analysis of the cells was performed using flow cytometry. The flow cytometry experiments were performed as follows. The cells were harvested, counted, and resuspended as described above. For DNA staining, the cells were washed and resuspended in ice-cold PBS and fixed by the dropwise addition of 95% ethanol. The cells were then incubated for 30 minutes on ice, washed, and resuspended in PBS containing 1% formaldehyde and 0.01% Tween. The cells were incubated with 50 units of DNAse and washed with PBS containing 5% DNAse. The cells were then incubated with anti DNA Fab (166, kind gift of Dr. Susan Wallace, University of Vermont), then washed and stained with a fluorescein conjugated second step anti-mouse immunoglobulin. The cells were then washed and resuspended in PBS/3% BSA/1% formaldehyde. The cells were stained for intracellular H2O2 using 6-carboxy-2′,7′-dichlorodihydrofluorescein diacetate (DCF-DA, Molecular Probes, Eugene, Oreg.). The cells were incubated with 1 mM DCF-DA for 20 minutes, washed twice in PBS containing 5% fetal calf serum and analyzed using flow cytometry. The mitochondrial membrane potential was assessed using MitoTracker Red (CM-H2XROS, Molecular Probes, Eugene, Oreg.). The cells were resuspended in warm (37° C.) PBS containing a final concentration of 0.5 micromolar of dye. The cells were then incubated for 30 minutes, pelleted, and resuspended in prewarmed medium for analysis. The data was acquired on a Coulter Elite Epics or Excel flow cytometer (Coulter, Hialeah, Fla.) and analyzed with CellQuest software, (Becton Dickinson, San Jose, Calif.). […] Each sample population was classified for cell size (forward scatter) and complexity (side scatter), gated on a population of interest and evaluated using 40,000 cells. Each figure describing flow cytometric data represents one of at least four replicate experiments.
All cell lines in this example were cultured in RPMI 1640 culture medium. The medium was supplemented with 5% fetal bovine serum (“FBS”), 2 mM L-Glutamine, 500 units/mL pennicillin/500 micrograms/mL of streptomycin, 10 mM HEPES Buffer, 10^−5 M 2-mercaptoethanol (“2-ME”), 1 mM MEM Sodium Pyruvate, and 0.04 micrograms/mL of Gentamicin (All reagents from Gibco BRL). The cells were maintained at 37° C. in a humidified atmosphere under 5% CO2 in air using standard cell culture techniques known to those of ordinary skill in the art. […]

L1210 DDP cells = assay: % death of L1210 DDP cells by flow cytometry; format: cell-based; details: for L1210 DDP % Death: Table 2, 25 ug/mL Cerulenin
Procedure: as §2
(§4) This example illustrates an embodiment of the invention, where multi-drug resistant cancer cells were exposed to compositions of the invention. Analysis of the cells was performed using flow cytometry. The flow cytometry experiments were performed as follows. The cells were harvested, counted, and resuspended as described above. For DNA staining, the cells were washed and resuspended in ice-cold PBS and fixed by the dropwise addition of 95% ethanol. The cells were then incubated for 30 minutes on ice, washed, and resuspended in PBS containing 1% formaldehyde and 0.01% Tween. The cells were incubated with 50 units of DNAse and washed with PBS containing 5% DNAse. […] The cells were incubated with 1 mM DCF-DA for 20 minutes, washed twice in PBS containing 5% fetal calf serum and analyzed using flow cytometry. The mitochondrial membrane potential was assessed using MitoTracker Red (CM-H2XROS, Molecular Probes, Eugene, Oreg.). […] The data was acquired on a Coulter Elite Epics or Excel flow cytometer (Coulter, Hialeah, Fla.) and analyzed with CellQuest software, (Becton Dickinson, San Jose, Calif.). […] Each sample population was classified for cell size (forward scatter) and complexity (side scatter), gated on a population of interest and evaluated using 40,000 cells. […]
The flow cytometry experiments were performed as follows. Once the samples were prepared and transferred into flow cytometric tubes, the samples were analyzed on a Becton/Dickinson Flow Cytometer. […] Statistical analysis, percents, and geometric mean values percents were calculated as described above.

B16F1 melanoma cells [3] = assay: B16F1 melanoma cells exposed to cerulenin, then injected into male mice; format: in vivo
Procedure: Highly carcinogenic B16F1 melanoma cells were either exposed (“treated”) or not exposed to cerulenin, then injected into male mice.
Day 0 @2:45 pm injected with B16F1 10^6 cells in PBS, Treatment w/25 ug/ml cerulenin 5.0 hrs
Day 0 injected w/B16F1 10^6 cells in PBS, Treatment w/25 ug/ml cerulenin 5.0 h
Day 0 @2:45 pm injected w/B16F1 (10^6 cells in PBS) Treatment w/25 ug/ml cerulenin 5 h

B16F1 melanoma cells [4] = assay: % death of B16F1 cells by flow cytometry; format: cell-based
Procedure: as §2, §3
All cell lines in this example were cultured in RPMI 1640 culture medium. The medium was supplemented with 5% fetal bovine serum (“FBS”), 2 mM L-Glutamine, 500 units/mL pennicillin/500 micrograms/mL of streptomycin, 10 mM HEPES Buffer, 10^−5 M 2-mercaptoethanol (“2-ME”), 1 mM MEM Sodium Pyruvate, and 0.04 micrograms/mL of Gentamicin (All reagents from Gibco BRL). The cells were maintained at 37° C. in a humidified atmosphere under 5% CO2 in air using standard cell culture techniques known to those of ordinary skill in the art.
The flow cytometry experiments were performed as follows. Once the samples were prepared and transferred into flow cytometric tubes, the samples were analyzed on a Becton/Dickinson Flow Cytometer. For antibodies that were PE conjugated and for the MitoTracker Red experiments, a program for red-colored fluorochromes was utilized. […] Statistical analysis, percents, and geometric mean values percents were calculated as described above.

HL60 cells [5] = assay: microscopy images of HL60 cells treated with cerulenin; format: cell-based, human; details: FIG. 4C
Description: (§5) In FIG. 4, microscopy images of HL60 and HL60 MDR (“multi-drug resistant”) cells treated with cerulenin (“Treated”) and not treated with cerulenin (“No Stn”) are shown.

HL60 cells [6] = assay: % death of HL60 cells by flow cytometry; format: cell-based, human; details: Table 1, 25 ug/mL Cerulenin
Procedure: as §2
as §4, with “above.” for “above. For DNA staining, the cells were washed and resuspended in ice-cold PBS and fixed by the dropwise addition of 95% ethanol. The cells were then incubated for 30 minutes on ice, washed, and resuspended in PBS containing 1% formaldehyde and 0.01% Tween. The cells were incubated with 50 units of DNAse and washed with PBS containing 5% DNAse.”

L1210 cells = assay: % death of L1210 cells by flow cytometry; format: cell-based; details: Table 2; 25 ug/mL Cerulenin; 7.0 Hours
Procedure: as §2
as §4, with “above.” for “above. For DNA staining, the cells were washed and resuspended in ice-cold PBS and fixed by the dropwise addition of 95% ethanol. The cells were then incubated for 30 minutes on ice, washed, and resuspended in PBS containing 1% formaldehyde and 0.01% Tween. The cells were incubated with 50 units of DNAse and washed with PBS containing 5% DNAse.”

HL60 MDR cells [7] = assay: microscopy images of HL60 MDR cells treated with cerulenin; format: cell-based, human; details: FIGS. 4E and 4F
Description: as §5

With `O=CC[C@@H](O)[C@H](O)[C@H](O)CO` [2-deoxy-D-glucose] the “percent of cell deaths” value ([1]; 24 hours, concentrations as in FIG. 29) was 46%, the “percent of cell deaths” value ([1]; 48 hours, concentrations as in FIG. 33) was 63% and the “tumor growth versus control” value (HL60 MDR tumor; 21 day period, single agent) was “increase in tumor growth”. The “tumor volume, Day 7” value (HL60 MDR tumor; Day 7 after implantation (start of treatment), 200 ug Etomoxir and/or 2.5 mM 2-Deoxy-D-glucose daily IP) was 35 mm^3, the “tumor volume, Day 9” value (HL60 MDR tumor; Day 9, 200 ug Etomoxir and/or 2.5 mM 2-Deoxy-D-glucose daily IP) was 51.56 mm^3 and the “tumor volume, Day 15” value (HL60 MDR tumor; Day 15, 200 ug Etomoxir and/or 2.5 mM 2-Deoxy-D-glucose daily IP) was 158.55 mm^3. For the same molecule, the “tumor volume, Day 21” value (HL60 MDR tumor; Day 21, 200 ug Etomoxir and/or 2.5 mM 2-Deoxy-D-glucose daily IP) was 1,181.61 mm^3, the “percent of cell deaths” value (HL60 MDR cells [2]; HL60 MDR, 24 hours, 2-deoxy-D-glucose at 2.5 mM, etomoxir as in FIG. 27) was 16% and the “percent of cell deaths” value (HL60 MDR cells [2]; HL60 MDR, 48 hours, concentrations as in FIG. 31) was 38%.

With `C/C=C/C/C=C/CCC(=O)[C@H]1O[C@H]1C(N)=O` [Cerulenin, cerulenin] the “cell death compared to control and non-multidrug resistant cancer cells” value (L1210 DDP cells; L1210 DDP, after treatment with cerulenin) was “greater amounts of cell death”, the “L1210 DDP % Death” value (L1210 DDP cells; 7.0 Hours) was 14% and the “L1210 DDP % Death” value (L1210 DDP cells; 24 Hours) was 92%. For the same molecule, the “development of lethal cancers” value (B16F1 melanoma cells [3]; male mice injected with B16F1 cells treated with 25 ug/ml cerulenin 5.0 hrs) was “did not develop lethal cancers”, the “tumor observation, Day 9” value (B16F1 melanoma cells [3]; single mice (#7, #8, #9), 10^6 B16F1 cells treated w/25 ug/ml cerulenin 5.0 hrs, Day 9) was “no visible sign of tumors” and the “tumor observation, Day 12” value (B16F1 melanoma cells [3]; single mice (#7, #8, #9), 10^6 B16F1 cells treated w/25 ug/ml cerulenin 5.0 hrs, Day 12) was “no visible tumors”. The “tumor observation, Day 13” value (B16F1 melanoma cells [3]; single mice (#7, #8, #9), 10^6 B16F1 cells treated w/25 ug/ml cerulenin 5.0 hrs, Day 13) was “no visible tumors”, the “B16F1 % Death” value (B16F1 melanoma cells [4]; Table 1; 25 ug/mL Cerulenin; 5.0 Hours) was 61% and the “B16F1 % Death” value (B16F1 melanoma cells [4]; Table 1; 25 ug/mL Cerulenin; 24 Hours) was 90%. The “B16F1 % Death” value (B16F1 melanoma cells [4]; Table 2; 25 ug/mL Cerulenin; 5.0 Hours) was 67%, the “B16F1 % Death” value (B16F1 melanoma cells [4]; Table 2; 25 ug/mL Cerulenin; 24 Hours) was 72% and the “B16F1 % Death” value (B16F1 melanoma cells [4]; Table 2; 24 Hours; 25 ug/mL Cerulenin) was 89%. For the same molecule, the “cell survival seen in microscopy images” value (HL60 cells [5]) was “large numbers of the cells survived”, the “HL60 % Death” value (HL60 cells [6]; 2.0 Hours) was 11% and the “HL60 % Death” value (HL60 cells [6]; 24 Hours) was 44%. The “L1210 % Death” value (L1210 cells) was 27%, the “cell death compared to control and non-multidrug resistant cancer cells” value (HL60 MDR cells [2]; HL60 MDR, after treatment with cerulenin) was “greater amounts of cell death” and the “HL60 MDR % Death” value (HL60 MDR cells [2]; 2.0 Hours) was 13%. The “HL60 MDR % Death” value (HL60 MDR cells [2]; 24 Hours) was 99.6% and the “cell death seen in microscopy images” value (HL60 MDR cells [7]) was “large numbers of cell death”.
